Reference: US12649750B2, “Macrocyclic compounds, compositions, and methods of using thereof” (Sionna Therapeutics Inc., priority 2022, dated 2026)

Each compound was assayed against T1, NBD1 (Homo sapiens, UniProt P13569) (assay: Aggregation analysis using differential static light scattering (DSLS), thermal stability of NBD1 (ΔTagg)). Conditions: ΔTagg versus DMSO control, NBD1 0.2 mg/ml.
T1 construct: Purified recombinant NBD1 was produced using previously described methods; made in house
Type: binding
Outline: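 NBD1 0.2 mg/ml, S200 buffer (50 mM Tris-HCl, 150 mM NaCl, 5 mM MgCl2, 2 mM ATP, 2 mM DTT, pH7.6) + 1% glycerol; cpd in DMSO; oil overlay. Ramp 25→70° C. at 1° C./min, DSLS images every 0.5° C. ΔTagg = Tagg (inflection) − mean DMSO Tagg.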

T1 sequence (P13569 423-646 limits assumed): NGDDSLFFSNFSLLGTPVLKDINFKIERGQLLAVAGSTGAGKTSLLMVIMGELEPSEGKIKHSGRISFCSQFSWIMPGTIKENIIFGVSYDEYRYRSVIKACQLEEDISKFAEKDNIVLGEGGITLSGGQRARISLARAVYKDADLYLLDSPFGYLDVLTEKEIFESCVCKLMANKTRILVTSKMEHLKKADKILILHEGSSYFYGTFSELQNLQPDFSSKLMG

Row | SMILES | DSLS 3D (100 μM ΔT)
1 | C[C@@H](Cc1cccc([C@@]2(C)CCCC(C)(C)CS(=O)(=O)CCc3c[nH]c4c(F)c(F)c(cc34)Oc3ccc(F)c(c3)-c3nc2nn3C)c1)C(=O)O [Compound 353, (2S)-2-Methyl-3-[3-[(12R)-6,25,26-trifluoro-9,12,16,16-tetramethyl-18,18-dioxo-2-oxa-18λ6-thia-9,10,23,29-tetrazapentacyclo[19.5.2.13,7.18,11.024,28]triaconta-1(26),3,5,7(30),8(29),10,21,24,27-nonaen-12-yl]phenyl]propanoic Acid] | A (an ΔTagg value less than or equal to 5 °C is marked “A”)
2 | COC(=O)[C@@H](C)Cc1cccc([C@@]2(C)CCCC(C)(C)CS(=O)(=O)CCc3c[nH]c4cc(F)c(cc34)Sc3ccc(F)c(c3)-c3nc2nn3C)c1 [Compound 354, Methyl (2S)-3-[3-[(12R)-6,26-difluoro-9,12,16,16-tetramethyl-18,18-dioxo-2,18λ6-dithia-9,10,23,29-tetrazapentacyclo[19.5.2.13,7.18,11.024,28]triaconta-1(26),3,5,7(30),8(29),10,21,24,27-nonaen-12-yl]phenyl]-2-methyl-propanoate] | A (an ΔTagg value less than or equal to 5 °C is marked “A”)
3 | C[C@@H](Cc1cccc([C@@]2(C)CCCC(C)(C)CS(=O)(=O)CCc3c[nH]c4cc(F)c(cc34)[S+]([O-])c3ccc(F)c(c3)-c3nc2nn3C)c1)C(=O)O (some centres unmarked) [Compound 355] | A (an ΔTagg value less than or equal to 5 °C is marked “A”)
4 | C[C@H](Cc1cccc([C@@]2(C)CCCC(C)(C)CS(=O)(=O)CCc3c(ncc4[nH]ccc34)Oc3ccc(F)c(c3)-c3nc2nn3C)c1)C(=O)O [Compound 356, (2R)-3-[3-[(6R)-28-Fluoro-3,6,10,10-tetramethyl-12,12-dioxo-24-oxa-12λ6-thia-3,4,19,22,30-pentazapentacyclo[23.3.1.12,5.015,23.016,20]triaconta-1(29),2(30),4,15,17,20,22,25,27-nonaen-6-yl]phenyl]-2-methyl-propanoic acid] | A (an ΔTagg value less than or equal to 5 °C is marked “A”)
5 | C[C@@H](Cc1cccc([C@@]2(C)CCCC(C)(C)CS(=O)(=O)CCc3c(c(F)cc4[nH]ccc34)S(=O)(=O)c3cccc(c3)-c3nc2nn3C)c1)C(=O)O [Compound 357, (2S)-3-[3-[(6R)-22-Fluoro-3,6,10,10-tetramethyl-12,12,24,24-tetraoxo-12λ6,24λ6-dithia-3,4,19,30-tetrazapentacyclo[23.3.1.12,5.015,23.016,20]triaconta-1(29),2(30),4,15,17,20,22,25,27-nonaen-6-yl]phenyl]-2-methyl-propanoic Acid] | B (a value above 5 °C and less than or equal to 10 °C is marked “B”)
6 | Cn1nc2nc1-c1cc(ccc1F)S(=O)(=O)c1c(F)c(F)c3[nH]ccc3c1CCS(=O)(=O)CC(C)(C)CCC[C@]2(C)c1cccc(CC(C)(C)C(=O)O)c1 [Compound 358, 2,2-Dimethyl-3-[3-[(6R)-21,22,28-trifluoro-3,6,10,10-tetramethyl-12,12,24,24-tetraoxo-12λ6,24λ6-dithia-3,4,19,30-tetrazapentacyclo[23.3.1.12,5.015,23.016,20]triaconta-1(29),2(30),4,15,17,20,22,25,27-nonaen-6-yl]phenyl]propanoic Acid] | A (an ΔTagg value less than or equal to 5 °C is marked “A”)
7 | C[C@@H](Cc1cccc([C@@]2(C)CCCC(C)(C)CS(=O)(=O)CCc3c(c(F)cc4[nH]ncc34)Oc3ccc(F)c(c3)-c3nc2nn3C)c1)C(=O)O [Compound 359, (2S)-3-[3-[(6R)-22,28-Difluoro-3,6,10,10-tetramethyl-12,12-dioxo-24-oxa-12λ6-thia-3,4,18,19,30-pentazapentacyclo[23.3.1.12,5.015,23.016,20]triaconta-1(29),2(30),4,15,17,20,22,25,27-nonaen-6-yl]phenyl]-2-methyl-propanoic Acid] | B (a value above 5 °C and less than or equal to 10 °C is marked “B”)
8 | CNC1CS(=O)(=O)CC(C)(C)CCC[C@](C)(c2cccc(C[C@@H](C)C(=O)O)c2)c2nc(n(C)n2)-c2cc(ccc2F)Oc2c(F)c(F)c3[nH]ccc3c21 (stereo partly drawn) [Compound 360D, (2R)-2-Methyl-3-[3-[(6R)-21,22,28-trifluoro-3,6,10,10-tetramethyl-14-(methylamino)-12,12-dioxo-24-oxa-12λ6-thia-3,4,19,30-tetrazapentacyclo[23.3.1.12,5.015,23.016,20]triaconta-1(29),2(30),4,15,17,20,22,25,27-nonaen-6-yl]phenyl]propanoic Acid] | A (an ΔTagg value less than or equal to 5 °C is marked “A”)
9 | Cn1nc2nc1-c1cc(ccc1F)Oc1c(F)c(F)c3[nH]cc(CC(=O)O)c3c1CCS(=O)(=O)CC(C)(C)CCC[C@]2(C)c1ccccc1 [Compound 361, 2-[(6R)-21,22,28-Trifluoro-3,6,10,10-tetramethyl-12,12-dioxo-6-phenyl-24-oxa-12λ6-thia-3,4,19,30-tetrazapentacyclo[23.3.1.12,5.015,23.016,20]triaconta-1(29),2(30),4,15,17,20,22,25,27-nonaen-17-yl]acetic Acid] | A (an ΔTagg value less than or equal to 5 °C is marked “A”)
10 | Cn1nc2nc1-c1cc(ccn1)Sc1c(F)cc3[nH]cc(CC(=O)O)c3c1CCS(=O)(=O)CC(C)(C)CCC[C@]2(C)c1ccccc1 [Compound 362, 2-[(6R)-22-Fluoro-3,6,10,10-tetramethyl-12,12-dioxo-6-phenyl-12λ6,24-dithia-3,4,19,28,30-pentazapentacyclo[23.3.1.12,5.015,23.016,20]triaconta-1(29),2(30),4,15,17,20,22,25,27-nonaen-17-yl]acetic Acid] | A (an ΔTagg value less than or equal to 5 °C is marked “A”)
11 | Cn1nc2nc1-c1cc(ccn1)Oc1c(F)c(F)c3[nH]cc(CC(=O)O)c3c1CCS(=O)(=O)CC(C)(C)CCC[C@]2(C)c1ccccc1 [Compound 363, 2-[(6R)-21,22-Difluoro-3,6,10,10-tetramethyl-12,12-dioxo-6-phenyl-24-oxa-12λ6-thia-3,4,19,28,30-pentazapentacyclo[23.3.1.12,5.015,23.016,20]triaconta-1(29),2(30),4,15,17,20,22,25,27-nonaen-17-yl]acetic acid] | A (an ΔTagg value less than or equal to 5 °C is marked “A”)
12 | Cn1nc2nc1-c1cc(ccn1)Cc1c(F)cc3[nH]cc(CC(=O)O)c3c1CCS(=O)(=O)CC(C)(C)CCC[C@]2(C)c1ccccc1 [Compound 364, 2-[(6R)-22-Fluoro-3,6,10,10-tetramethyl-12,12-dioxo-6-phenyl-12λ6-thia-3,4,19,28,30-pentazapentacyclo[23.3.1.12,5.015,23.016,20]triaconta-1(29),2(30),4,15,17,20,22,25,27-nonaen-17-yl]acetic Acid] | A (an ΔTagg value less than or equal to 5 °C is marked “A”)
13 | Cn1nc2nc1-c1cc(ccn1)S(=O)(=O)c1c(F)cc3[nH]cc(CC(=O)O)c3c1CCS(=O)(=O)CC(C)(C)CCC[C@]2(C)c1ccccc1 [Compound 366, 2-[(6R)-22-Fluoro-3,6,10,10-tetramethyl-12,12,24,24-tetraoxo-6-phenyl-12λ6,24λ6-dithia-3,4,19,28,30-pentazapentacyclo[23.3.1.12,5.015,23.016,20]triaconta-1(29),2(30),4,15,17,20,22,25,27-nonaen-17-yl]acetic acid] | A (an ΔTagg value less than or equal to 5 °C is marked “A”)
14 | COc1c(CCC(=O)O)cccc1C1(C)CCCC(C)(C)CS(=O)(=O)CCc2c(c(F)c(F)c3[nH]ccc23)Oc2ccc(F)c(c2)-c2nc1nn2C (centres unmarked) [Compound 373, 3-[2-Methoxy-3-(21,22,28-trifluoro-3,6,10,10-tetramethyl-12,12-dioxo-24-oxa-12λ6-thia-3,4,19,30-tetrazapentacyclo[23.3.1.12,5.015,23.016,20]triaconta-1(29),2(30),4,15,17,20,22,25,27-nonaen-6-yl)phenyl]propanoic Acid] | B (a value above 5 °C and less than or equal to 10 °C is marked “B”)
15 | COC(=O)[C@H](C)Cc1cccc([C@@]2(C)CCCC(C)(C)CS(=O)(=O)CCc3c(c(F)cc4[nH]ccc34)Sc3cc(c(F)cc3O)-c3nc2nn3C)c1 [Compound 376, Methyl (2R)-3-[3-[(6R)-22,28-difluoro-26-hydroxy-3,6,10,10-tetramethyl-12,12-dioxo-12λ6,24-dithia-3,4,19,30-tetrazapentacyclo[23.3.1.12,5.015,23.016,20]triaconta-1(29),2(30),4,15,17,20,22,25,27-nonaen-6-yl]phenyl]-2-methyl-propanoate] | A (an ΔTagg value less than or equal to 5 °C is marked “A”)
16 | C[C@H](Cc1cccc([C@@]2(C)CCCC(C)(C)CS(=O)(=O)CCc3c(c(F)cc4[nH]ccc34)Sc3cc(c(F)cc3N)-c3nc2nn3C)c1)C(=O)O [Compound 377, (2R)-3-[3-[(6R)-26-Amino-22,28-difluoro-3,6,10,10-tetramethyl-12,12-dioxo-12λ6,24-dithia-3,4,19,30-tetrazapentacyclo[23.3.1.12,5.015,23.016,20]triaconta-1(29),2(30),4,15,17,20,22,25,27-nonaen-6-yl]phenyl]-2-methyl-propanoic Acid] | B (a value above 5 °C and less than or equal to 10 °C is marked “B”)
17 | C[C@H](Cc1cccc([C@@]2(C)CCCC(C)(C)CS(=O)(=O)CCc3c(c(F)cc4[nH]ccc34)Sc3cc(c(F)cc3C(=O)O)-c3nc2nn3C)c1)C(=O)O [Compound 378, (6R)-6-[3-[(2R)-2-Carboxypropyl]phenyl]-22,28-difluoro-3,6,10,10-tetramethyl-12,12-dioxo-12λ6,24-dithia-3,4,19,30-tetrazapentacyclo[23.3.1.12,5.015,23.016,20]triaconta-1(29),2(30),4,15,17,20,22,25,27-nonaene-26-carboxylic Acid] | A (an ΔTagg value less than or equal to 5 °C is marked “A”)
